Results as given in article PMC5515969, “Effects of 31 FDA approved small-molecule kinase inhibitors on isolated rat liver mitochondria” (Archives of Toxicology, 2016).
Where two headings read alike, the source gives them in different places. Marks after values point to notes of the source that are not given here.

What was measured:
[1] = test system: isolated rat liver mitochondria; assay: Mitochondrial oxygen consumption (glutamate/malate or succinate driven, state 4 and state 3); assay type: biochemical; conditions: for Glutamate/malate driven respiration State 3 / Glutamate/malate driven respiration State 4 / Succinate-driven respiration State 3 / Succinate-driven respiration State 4: oxygen consumption, DMSO-treated = 1; as to State 3 respiration driven by succinate at 10XCmax: key: 0 indicates that the drug had no effects (negative); as to State 3 respiration driven by succinate at 1XCmax: key: 0 indicates that the drug had no effects (negative)
Method in brief: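 Oxygen uptake on glutamate/malate or on succinate defined state 4; ADP added 3 min later gave state 3. Mitochondria isolated from rat liver by differential centrifugation, adjusted to 1 mg/ml and pretreated 5 min with inhibitor (0.1% DMSO final). Values relative to DMSO control, set to 1.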

RCC I = RCC I activity in submitochondrial particles; assay type: biochemical, rat; design: key to RCC I at 10XCmax / RCC I at 100XCmax / RCC I at 50XCmax / RCC I at 30XCmax / RCC I at 20XCmax: activity relative to DMSO-treated controls (control set as 1 = 100%); conditions: 10XCmax; DMSO treated samples set as 1
Method in brief: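 First, submitochondrial particles (1 mg/ml) are incubated with inhibitor for 15 min. Next, complex activities are followed spectrophotometrically, with RCC I taken as the difference between buffers lacking and containing rotenone. Finally, activities are expressed relative to DMSO controls set at 1.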

RCC II = target: T1, RCC II (Rattus norvegicus, UniProt P21913+Q641Z9+Q6PCT8+Q920L2); assay: RCC II activity in submitochondrial particles; assay type: biochemical; design: key: activity relative to DMSO-treated controls (control set as 1 = 100%); conditions: DMSO treated samples set as 1
T1 construct: Submitochondrial particles were prepared by subjecting the intact mitochondria to three successive freeze–thaw cycles; from tissue; host or cells: rat liver mitochondria, used as submitochondrial particles
T1 sequence (Q920L2 35-656): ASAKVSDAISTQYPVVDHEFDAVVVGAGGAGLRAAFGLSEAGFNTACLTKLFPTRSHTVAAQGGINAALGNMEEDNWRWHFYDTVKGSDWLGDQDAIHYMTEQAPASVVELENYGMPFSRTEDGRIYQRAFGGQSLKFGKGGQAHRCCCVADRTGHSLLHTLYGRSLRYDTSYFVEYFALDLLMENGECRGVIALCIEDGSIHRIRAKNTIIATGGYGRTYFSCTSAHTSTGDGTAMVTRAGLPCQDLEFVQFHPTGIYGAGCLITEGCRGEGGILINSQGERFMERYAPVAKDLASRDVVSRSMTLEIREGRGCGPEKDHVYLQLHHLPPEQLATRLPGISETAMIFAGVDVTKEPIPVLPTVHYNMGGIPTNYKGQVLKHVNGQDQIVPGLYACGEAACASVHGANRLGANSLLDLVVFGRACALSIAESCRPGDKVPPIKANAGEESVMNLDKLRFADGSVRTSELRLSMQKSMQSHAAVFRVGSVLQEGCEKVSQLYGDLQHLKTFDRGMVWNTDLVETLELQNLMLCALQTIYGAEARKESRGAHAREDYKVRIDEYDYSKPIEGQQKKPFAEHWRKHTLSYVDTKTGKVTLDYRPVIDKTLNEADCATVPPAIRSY
T1 sequence (P21913 31-282): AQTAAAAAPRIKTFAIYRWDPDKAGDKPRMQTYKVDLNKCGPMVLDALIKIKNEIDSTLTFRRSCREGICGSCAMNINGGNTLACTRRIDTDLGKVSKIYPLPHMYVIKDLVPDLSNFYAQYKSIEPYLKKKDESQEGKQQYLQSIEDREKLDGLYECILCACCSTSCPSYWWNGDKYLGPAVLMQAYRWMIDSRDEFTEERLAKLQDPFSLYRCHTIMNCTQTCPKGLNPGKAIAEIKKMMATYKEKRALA
T1 sequence (Q641Z9 1-169): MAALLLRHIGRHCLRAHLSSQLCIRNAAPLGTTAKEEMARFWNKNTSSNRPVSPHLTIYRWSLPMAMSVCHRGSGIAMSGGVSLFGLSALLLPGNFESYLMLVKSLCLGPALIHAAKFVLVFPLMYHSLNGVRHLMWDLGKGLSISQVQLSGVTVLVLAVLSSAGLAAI
T1 sequence (Q6PCT8 57-159): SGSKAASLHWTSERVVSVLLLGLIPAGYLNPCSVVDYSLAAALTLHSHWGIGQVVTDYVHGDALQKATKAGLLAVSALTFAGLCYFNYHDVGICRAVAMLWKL
Method in brief: (§1)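 Abs 340 nm (I/V) or 600 nm (II), 1-min reads × 6 min; 550 nm (III, IV), 10-s reads × 2 min. RCC I = rotenone-free minus rotenone rate. DMSO control = 1.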

RCC III = RCC III activity in submitochondrial particles; assay type: biochemical, rat; design: key to RCC III at 100XCmax: activity relative to DMSO-treated controls (control set as 1 = 100%); conditions: 100XCmax
Method in brief: as §1

RCC V = RCC V activity in submitochondrial particles; assay type: biochemical, rat; conditions: DMSO treated samples set as 1; as to RCC V at 5XCmax: key: 0 indicates that the drug had no effects (negative)
Method in brief: as §1

[2] = test system: isolated rat liver mitochondria; assay: Mitochondrial inner membrane potential (MMP), Rhodamine 123; assay type: biochemical
Excerpt: Fig. 3 KI effects on mitochondrial inner membrane potential (MMP). […] In a, c, data are means and standard derivations from three separate experiments. *p < 0.05 as compared to DMSO-treated samples at the end of experiments. In b, data are means of two independent experiments

[3] = test system: isolated rat liver mitochondria; conditions: positive control alamethicin treated samples
[4] = cited from earlier work
[5] = test system: isolated rat liver mitochondria; assay: Mitochondrial ROS production (CM-H2DCFDA)
[6] = 1XCmax, DMSO treated samples set as 1
[7] = 2.5XCmax, DMSO treated samples set as 1
[8] = 5XCmax, DMSO treated samples set as 1
[9] = 10XCmax, DMSO treated samples set as 1
[10] = 20XCmax, DMSO treated samples set as 1
[11] = 30XCmax, DMSO treated samples set as 1
[12] = 50XCmax, DMSO treated samples set as 1
[13] = 100XCmax, DMSO treated samples set as 1

CC(C)(C)c1nc(-c2cccc(NS(=O)(=O)c3c(F)cccc3F)c2F)c(-c2ccnc(N)n2)s1 [Dabrafenib]
State 3 respiration driven by glutamate/malate at 1XCmax [1, 6]: 0 | State 3 respiration driven by succinate at 1XCmax [1, 6]: 0 | State 4 respiration driven by glutamate/malate at 1XCmax [1, 6]: 0 | State 4 respiration driven by succinate at 1XCmax [1, 6]: 0 | State 3 respiration driven by glutamate/malate at 2.5XCmax [1, 7]: 0 | State 3 respiration driven by succinate at 2.5XCmax [1, 7]: 0 | State 4 respiration driven by glutamate/malate at 2.5XCmax [1, 7]: 0 | State 4 respiration driven by succinate at 2.5XCmax [1, 7]: 0 | State 3 respiration driven by glutamate/malate at 5XCmax [1, 8]: 0 | State 3 respiration driven by succinate at 5XCmax [1, 8]: 0 | State 4 respiration driven by glutamate/malate at 5XCmax [1, 8]: 0 | State 4 respiration driven by succinate at 5XCmax [1, 8]: 0 | Glutamate/malate driven respiration State 3 ([1]; 10-fold Cmax): 0.94 ± 0.04 | Glutamate/malate driven respiration State 4 ([1]; 10-fold Cmax): 1.35 ± 0.19 | Succinate-driven respiration State 3 ([1]; 10-fold Cmax): 0.97 ± 0.07 | Succinate-driven respiration State 4 ([1]; 10-fold Cmax): 1.38 ± 0.13 | State 3 respiration driven by glutamate/malate at 10XCmax [1, 9]: 0 | State 3 respiration driven by succinate at 10XCmax [1, 9]: 0 | State 4 respiration driven by glutamate/malate at 10XCmax [1, 9]: 1.35±0.19 | State 4 respiration driven by succinate at 10XCmax [1, 9]: 1.38±0.13 | Glutamate/malate driven respiration State 3 ([1]; 20-fold Cmax): 0.90 ± 0.05 | Glutamate/malate driven respiration State 4 ([1]; 20-fold Cmax): 1.59 ± 0.05 | Succinate-driven respiration State 3 ([1]; 20-fold Cmax): 0.65 ± 0.01 | Succinate-driven respiration State 4 ([1]; 20-fold Cmax): 1.31 ± 0.02 | State 3 respiration driven by glutamate/malate at 20XCmax [1, 10]: 0 | State 3 respiration driven by succinate at 20XCmax [1, 10]: 0.65±0.01 | State 4 respiration driven by glutamate/malate at 20XCmax [1, 10]: 1.59±0.05 | State 4 respiration driven by succinate at 20XCmax [1, 10]: 1.31±0.02 | Glutamate/malate driven respiration State 3 ([1]; 30-fold Cmax): 0.71 ± 0.03 | Glutamate/malate driven respiration State 4 ([1]; 30-fold Cmax): 2.22 ± 0.24 | Succinate-driven respiration State 3 ([1]; 30-fold Cmax): 0.59 ± 0.07 | Succinate-driven respiration State 4 ([1]; 30-fold Cmax): 1.52 ± 0.12 | State 3 respiration driven by glutamate/malate at 30XCmax [1, 11]: 0.71±0.03 | State 3 respiration driven by succinate at 30XCmax [1, 11]: 0.59±0.07 | State 4 respiration driven by glutamate/malate at 30XCmax [1, 11]: 2.22±0.24 | State 4 respiration driven by succinate at 30XCmax [1, 11]: 1.52±0.12 | Glutamate/malate driven respiration State 3 ([1]; 50-fold Cmax): 0.56 ± 0.05 | Glutamate/malate driven respiration State 4 ([1]; 50-fold Cmax): 2.42 ± 0.21 | Succinate-driven respiration State 3 ([1]; 50-fold Cmax): 0.44 ± 0.10 | Succinate-driven respiration State 4 ([1]; 50-fold Cmax): 1.69 ± 0.30 | State 3 respiration driven by glutamate/malate at 50XCmax [1, 12]: 0.56±0.05 | State 3 respiration driven by succinate at 50XCmax [1, 12]: 0.44±0.10 | State 4 respiration driven by glutamate/malate at 50XCmax [1, 12]: 2.42±0.21 | State 4 respiration driven by succinate at 50XCmax [1, 12]: 1.69±0.30 | Glutamate/malate driven respiration State 3 ([1]; 100-fold Cmax): 0.41 ± 0.05 | Glutamate/malate driven respiration State 4 ([1]; 100-fold Cmax): 2.49 ± 0.32 | Succinate-driven respiration State 3 ([1]; 100-fold Cmax): 0.28 ± 0.01 | Succinate-driven respiration State 4 ([1]; 100-fold Cmax): 1.03 ± 0.09 | State 3 respiration driven by glutamate/malate at 100XCmax [1, 13]: 0.41±0.05 | State 3 respiration driven by succinate at 100XCmax [1, 13]: 0.28±0.01 | State 4 respiration driven by glutamate/malate at 100XCmax [1, 13]: 2.49±0.32 | State 4 respiration driven by succinate at 100XCmax [1, 13]: 0 | effect on state 4 respiration ([1]; highest tested concentrations): significant increases | lowest concentration significantly affecting mitochondrial oxygen consumption ([1]; tested at 1 to 100-fold Cmax): tenfold | RCC I at 10XCmax (RCC I): 0 | RCC II at 1.0XCmax (RCC II; 1.0XCmax): 0 | RCC II at 2.5XCmax (RCC II; 2.5XCmax): 0 | RCC II at 5XCmax (RCC II; 5XCmax): 0 | RCC II at 10XCmax (RCC II; 10XCmax): 0 | RCC II at 20XCmax (RCC II; 20XCmax): 0 | RCC II at 30XCmax (RCC II; 30XCmax): 0 | RCC II at 50XCmax (RCC II; 50XCmax): 0 | RCC II at 100XCmax (RCC II; 100XCmax): 0 | RCC III at 100XCmax (RCC III): 0 | RCC V at 5XCmax (RCC V; 5XCmax): 0 | RCC V at 50XCmax (RCC V; 50XCmax): 0 | lowest concentration decreasing MMP [2]: 20 fold Cmax | MMP measured by Rhodamine 123 at 1XCmax ([2]; 1XCmax, difference in signal between KI and DMSO treated samples at the end of experiments): 0 | MMP measured by Rhodamine 123 at 2.5XCmax ([2]; 2.5XCmax, difference in signal between KI and DMSO treated samples at the end of experiments): 0 | MMP measured by Rhodamine 123 at 5XCmax ([2]; 5XCmax, difference in signal between KI and DMSO treated samples at the end of experiments): 0 | MMP measured by Rhodamine 123 at 10XCmax ([2]; 10XCmax, difference in signal between KI and DMSO treated samples at the end of experiments): 0 | MMP measured by Rhodamine 123 at 20XCmax ([2]; 20XCmax, difference in signal between KI and DMSO treated samples at the end of experiments): 660±95* | MMP measured by Rhodamine 123 at 30XCmax ([2]; 30XCmax, difference in signal between KI and DMSO treated samples at the end of experiments): 773±60* | MMP measured by Rhodamine 123 at 50XCmax ([2]; 50XCmax, difference in signal between KI and DMSO treated samples at the end of experiments): 953±54* | MMP measured by Rhodamine 123 at 100XCmax ([2]; 100XCmax, difference in signal between KI and DMSO treated samples at the end of experiments): 926±89* | effect on MMP ([2]; up to 100-fold Cmax or highest testable concentration): decrease in MMP | Cytochrome c release 1XCmax ([3]; 1XCmax): 0 | Cytochrome c release 2.5XCmax ([3]; 2.5XCmax): 0 | Cytochrome c release 5XCmax ([3]; 5XCmax): 19.44±2.10 percentage of the positive control group | Cytochrome c release 10XCmax ([3]; 10XCmax): 15.99±0.85 percentage of the positive control group | Cytochrome c release 20XCmax ([3]; 20XCmax): 17.52±7.37 percentage of the positive control group | Cytochrome c release 30XCmax ([3]; 30XCmax): 17.54±2.16 percentage of the positive control group | Cytochrome c release 50XCmax ([3]; 50XCmax): 21.81±7.02 percentage of the positive control group | Cytochrome c release 100XCmax ([3]; 100XCmax): 15.21±0.35 percentage of the positive control group | Cmax ([4]; human therapeutic Cmax at FDA recommended dosages, ref product labeling and drug approval packages at the official FDA website): 2.84 µM | Cmax (ng or µg/ml) ([4]; human therapeutic maximal blood concentration, ref product labeling): 1,478 ng/ml | Cmax ([4]; read-out: Cmax at µM, human therapeutic maximal blood concentration, ref product labeling): 2.84 µM | lowest concentration triggering ROS overproduction [5]: 50 fold Cmax | ROS measured by CM-H2DCFDA at 1XCmax [5, 6]: 0 | ROS measured by CM-H2DCFDA at 2.5XCmax [5, 7]: 0 | ROS measured by CM-H2DCFDA at 5XCmax [5, 8]: 0 | ROS measured by CM-H2DCFDA at 10XCmax [5, 9]: 0 | ROS measured by CM-H2DCFDA at 20XCmax [5, 10]: 0 | ROS measured by CM-H2DCFDA at 30XCmax [5, 11]: 0 | ROS measured by CM-H2DCFDA at 50XCmax [5, 12]: 2.23±0.44 | ROS measured by CM-H2DCFDA at 100XCmax [5, 13]: 1.80±0.16 | effect on ROS production ([5]; highest tested concentrations): significantly ROS production
